Columns and labels:
[1] = system: primary breast tumor as well as metastatic disease; experiment: PET imaging of [18F]FMAU in breast cancer patients (Phase I); type: in vivo, human; conditions: FIG. 3
Excerpt: (§1) In addition to animal models, we also studied the [^18F]FMAU obtained through our synthesis method using the labeling kit in patients (Phase I) with known breast and prostate cancer. […] In view of the promising clinical Phase I data of [^18F]FMAU, it is clear that FMAU is a promising candidate for PET imaging of tumor cell proliferation, and may ultimately complement the role of FLT or other cell proliferation markers currently under development.

[2] = Adverse reactions in Phase I patients with breast and prostate cancer; type: in vivo, human; conditions: all studied patients (Phase I, known breast and prostate cancer)
Excerpt: as §1

[3] = Circulating metabolites in human blood after injection of [18F]FMAU; type: in vivo; conditions: human blood at 1 hour post-injection
Excerpt: as §1

## Cc1cn([C@@H]2O[C@H](CO)C(O)C2[18F])c(=O)[nH]c1=O (stereo partly drawn) [[^18F]FMAU, 2′-deoxy-2′-[^18F]fluoro-5-methyl-1-beta-D-arabinofuranosyl-uracil]
[1]
  primary breast tumor as well as metastatic disease uptake of [18F]FMAU (PET imaging): excellent
[2]
  adverse reactions: No adverse reactions were observed
[3]
  circulating metabolites in human blood: No major circulating metabolites were identified
